One test relates to MCF-7 cells. Nature of the test: MTT cell viability assay, MCF-7 cells. It counts as cell-based. To be noted: Homo sapiens, MCF7, 72 h, mean ± SD of 3 experiments; for GI50: read-out: GI50 (50% growth inhibition concentration), MCF-7 cells; for CC50: read-out: LC50 (50% lethal concentration), MCF-7 cells. The method, then: HCT 116 and MCF-7 cells were seeded in 96-well plates at a density of 1 × 10^4 cells/well and allowed to grow for 20-24 h before addition of test compounds. DMSO stocks of indolin-2-one compounds were serially diluted in medium each time an assay was performed. Cell viability was determined at the time of compound addition (time 0) and after 72 h of compound treatment by reduction of 3-(4,5-dimethylthiazol-2-yl)-2,5-diphenyltetrazolium bromide (MTT) by dehydrogenases in viable cells. MTT was added into each well (final concentration 400 μg/ml) and the plates were incubated for 4 h at 37°C. The supernatants were aspirated and upon solubilization of the formed formazan crystals in DMSO:glycine buffer pH 10.5 (ratio 4:1), absorbance at 550 nm was measured. 50% growth inhibition concentrations (GI50) and 50% lethal concentrations (LC50) values were calculated.
Background: Tetrazolium assays rely on reduction of a dye to a coloured formazan, in cell work by metabolically active cells.

The next test addresses T1, TrxR in HCT 116 cells (Homo sapiens, UniProt Q16881).
T1 construct: Lysates of HCT 116 cells treated with indicated concentrations of selected SCA analogs for 10 h; endogenous in cells; host or cells: HCT 116
T1 sequence (Q16881 1-499 isoform Q16881-5): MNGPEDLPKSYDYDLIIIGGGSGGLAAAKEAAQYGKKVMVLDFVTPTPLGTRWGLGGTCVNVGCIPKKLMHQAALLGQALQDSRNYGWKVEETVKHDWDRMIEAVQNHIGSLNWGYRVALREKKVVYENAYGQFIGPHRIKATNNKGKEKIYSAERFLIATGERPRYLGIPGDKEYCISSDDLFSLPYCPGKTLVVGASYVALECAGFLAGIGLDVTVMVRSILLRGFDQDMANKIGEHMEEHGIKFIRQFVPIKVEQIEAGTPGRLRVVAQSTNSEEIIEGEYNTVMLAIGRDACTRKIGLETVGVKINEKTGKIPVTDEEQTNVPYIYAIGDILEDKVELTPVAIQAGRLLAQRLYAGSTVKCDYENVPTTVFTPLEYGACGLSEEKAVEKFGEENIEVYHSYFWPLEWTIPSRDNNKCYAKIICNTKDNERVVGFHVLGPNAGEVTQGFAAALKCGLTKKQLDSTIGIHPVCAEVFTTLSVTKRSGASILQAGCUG
Nature of the test: cellular TrxR activity in HCT 116 cell lysates (insulin reduction assay). To be noted: for cellular TrxR activity, HCT 116 cells: 10 h treatment, 20, 30, 40 and 50 μM. It counts as cell-based. The method, then:
Cells were seeded onto 100 mm or 60 mm culture plates and upon reaching ~70% confluency, they were subjected to drug treatment for indicated durations. Pellets of compound-treated or DMSO control cells comprising both attached and floating cells were collected and lysed in lysis buffer (25 mM Tris-HCl pH 7.5, 100 mM NaCl, 2.5 mM EDTA, 2.5 mM EGTA, 20 mM NaF, 1 mM Na3VO4, 20 mM sodium β-glycerophosphate, 10 mM sodium pyrophosphate, 0.5% Triton X-100) with freshly added protease inhibitor cocktail (Roche Diagnostics). Prior to being used in Western blot analysis and/or cellular TrxR, GR, Trx and GPx activity determination, lysates were precleared by centrifugation and protein concentrations were determined using a modified Bradford assay (Bio-Rad Laboratories) as described in the manufacturer's manual. This procedure for collecting whole cell lysate was used for all experiments except for the Trx-redox state determination experiment. Equal amounts of protein (50 μg) in each lysate sample were separated by SDS-PAGE, followed by electroblotting onto nitrocellulose membranes. Electroblotted proteins on membranes were probed with a primary antibody and subsequently by a secondary antibody conjugated to HRP.
Freshly collected cell lysates were used for measurement of activity of cellular Trx and TrxR. To measure TrxR activity, in each well of a 96-well plate, 25 μg of cell lysate was incubated in a final volume of 50 μl containing 85 mM Hepes (pH 7.6), 0.3 mM insulin, 10 μM rhTrx1, 2.5 mM EDTA and 660 μM NADPH for 40 min at 37°C. Controls containing lysates and all reaction reagents except rhTrx1 for each lysate sample were also set up. 200 μl of 1 mM DTNB in 6 M guanidine-HCl, 200 mM Tris-HCl pH 8.0 solution was added to quench the reaction. The amount of free thiols generated from insulin reduction was determined by DTNB reduction at 412 nm using the VersaMax microplate reader. To measure Trx activity, procedures were carried out similar to those for determining cellular TrxR activity, except that the cell lysates were incubated for 20 min with 300 nM recombinant rat TrxR in place of rhTrx1. Controls containing lysates and all reaction reagents except recombinant rat TrxR for each lysate sample were also set up. For each sample, Trx or TrxR activity was calculated as the absorbance at 412 nm subtracted from that of the corresponding control and expressed as a percentage of the activity measured in DMSO-treated cells.

A further test addresses T2, recombinant rat TrxR (Rattus norvegicus, UniProt O89049).
T2 construct: made in house
T2 sequence (O89049 1-499): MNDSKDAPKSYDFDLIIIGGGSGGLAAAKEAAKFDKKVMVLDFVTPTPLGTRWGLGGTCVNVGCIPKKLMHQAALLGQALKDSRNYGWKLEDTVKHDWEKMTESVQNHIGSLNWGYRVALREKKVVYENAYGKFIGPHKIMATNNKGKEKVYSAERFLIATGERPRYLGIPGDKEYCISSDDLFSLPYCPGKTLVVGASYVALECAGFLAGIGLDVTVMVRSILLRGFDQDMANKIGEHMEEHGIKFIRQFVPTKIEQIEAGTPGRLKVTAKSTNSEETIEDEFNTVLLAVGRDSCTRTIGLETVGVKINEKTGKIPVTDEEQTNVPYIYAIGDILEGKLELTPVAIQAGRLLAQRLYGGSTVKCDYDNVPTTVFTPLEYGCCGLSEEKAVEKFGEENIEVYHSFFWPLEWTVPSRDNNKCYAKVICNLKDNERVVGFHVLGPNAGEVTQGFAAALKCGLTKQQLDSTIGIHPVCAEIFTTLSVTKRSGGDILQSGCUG
Nature of the test: in vitro TrxR DTNB reduction assay. It counts as biochemical. To be noted: 30 min incubation, 100 nM recombinant rat TrxR, 200 μM NADPH, read-out: TrxR inhibition IC50. The protocol: In a volume of 100 μl of 50 mM Tris-HCl pH 7.5, 2 mM EDTA buffer (TE buffer), compounds of concentrations 1-100 μM were incubated with 100 nM recombinant rat TrxR and 200 μM NADPH at room temperature in 96-well plates for 30 and 60 min. The incubation was terminated by addition of 100 μl per well of 10 mM DTNB, 200 μM NADPH solution in TE buffer and immediately followed by measurement of linear increase of absorbance at 412 nm for the initial 2 min using the VersaMax microplate reader (Molecular Devices). The results were expressed as % of TrxR activity of drug-treated sample over that of DMSO control. The 50% inhibition concentration (IC50) values were calculated.

What is called IC50 is the concentration that gives 50% inhibition. `CC(=O)C=C1C(=O)N(C)c2ccccc21` [Compound 1, 1-methyl-3(2-oxopropylidene)indolin-2-one]: in the test on MCF-7 cells, the GI50 was determined as 15.1 ± 4.1 µM and the CC50 was 27.6 ± 0.4 µM. In addition, on TrxR in HCT 116 cells, the “cellular TrxR activity, HCT 116 cells” value is on record as “did not cause apparent inhibition”. Further, the IC50 at recombinant rat TrxR is 22.1 ± 1.8 µM.
For the molecule `CCCCN1C(=O)/C(=C/C(C)=O)c2ccccc21` [Compound 4], in the test with MCF-7 cells, the GI50 came out at 6.4 ± 1.5 µM and the CC50 was 22.4 ± 3.6 µM. Moreover, on TrxR in HCT 116 cells, the “cellular TrxR activity, HCT 116 cells” value is listed as “decrease in TrxR activity in a dose-dependent manner”. Further, the 50% inhibitory concentration (IC50) on recombinant rat TrxR is 8.6 ± 0.9 µM.
With `CC(=O)/C=C1/C(=O)N(Cc2ccccc2)c2ccccc21` [Compound 5], in the test on MCF-7 cells, the GI50 came out at 4.5 ± 0.6 µM and the CC50 turned out to be 9.6 ± 0.2 µM. For the same molecule, at TrxR in HCT 116 cells, the “cellular TrxR activity, HCT 116 cells” value was “decrease in TrxR activity in a dose-dependent manner”. Besides, at TrxR in HCT 116 cells (10 h treatment, 40 and 50 μM, p < 0.05 vs DMSO), the “cellular TrxR activity at 40 and 50 μM, HCT 116 cells” value is “significant reduction”. The IC50 at recombinant rat TrxR was 6.2 ± 1.7 µM.
For `CN1C(=O)/C(=C/C(=O)c2ccccc2)c2ccccc21` [Compound 6], in the test on MCF-7 cells, the GI50 came out at 14 ± 3.7 µM and the CC50 worked out at 27.1 ± 0.5 µM. In addition, on TrxR in HCT 116 cells, the “cellular TrxR activity, HCT 116 cells” value was “did not cause apparent inhibition”. For the same molecule, the IC50 at recombinant rat TrxR amounted to 14.7 ± 3.2 µM.
